Measurements as given in PubChem BioAssay (NCI).
Several values for one entry are separate records, joined by “and”; a condition that tells them apart may be missing. Identical values can stand only once.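 How tested: cells in 96-well plates exposed to compound for 48 hours at five concentrations. GI50 = concentration required for 50% inhibition of growth. TGI: concentration producing complete growth inhibition.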

Tests used:
Assay in all cases: DTP human tumour cell line panel, 48 h
HCC-2998 colon = system: HCC-2998 colon
HL-60(TB) leukemia = system: HL-60(TB) leukemia
HT29 colon = system: HT29 colon
MALME-3M melanoma = system: MALME-3M melanoma
MDA-MB-231 breast = system: MDA-MB-231 breast
MOLT-4 leukemia = system: MOLT-4 leukemia
OVCAR-4 ovarian = system: OVCAR-4 ovarian
RPMI-8226 leukemia = system: RPMI-8226 leukemia
SF-539 CNS = system: SF-539 CNS
SR leukemia = system: SR leukemia

| Structure (SMILES) | GI50 (HCC-2998 colon) | TGI (HCC-2998 colon) | GI50 (HL-60(TB) leukemia) | TGI (HL-60(TB) leukemia) | GI50 (HT29 colon) | TGI (HT29 colon) | GI50 (MALME-3M melanoma) | TGI (MALME-3M melanoma) | GI50 (MDA-MB-231 breast) | TGI (MDA-MB-231 breast) | GI50 (MOLT-4 leukemia) | TGI (MOLT-4 leukemia) | GI50 (OVCAR-4 ovarian) | TGI (OVCAR-4 ovarian) | GI50 (RPMI-8226 leukemia) | TGI (RPMI-8226 leukemia) | GI50 (SF-539 CNS) | TGI (SF-539 CNS) | GI50 (SR leukemia) | TGI (SR leukemia) |
| --- | --- | --- | --- | --- | --- | --- | --- | --- | --- | --- | --- | --- | --- | --- | --- | --- | --- | --- | --- | --- |
| O=c1[nH]c2cc(O)ccc2n2cc3c(F)cccc3c12 | > 24.3 µM | > 100 µM | 6.55 µM | > 100 µM | 5.33 µM | > 100 µM | 3.96 µM | > 100 µM | 6.42 µM | > 100 µM | 2.16 µM | > 100 µM | > 100 µM | > 100 µM | 4.38 µM | > 100 µM | 1.3 µM | > 100 µM | 0.509 µM | 28.9 µM |
| CC(=O)C1=C(O)/C(=C\c2ccco2)OC1=O |  | > 10 µM |  | > 10 µM |  | > 10 µM |  | > 10 µM |  | > 10 µM |  | > 10 µM |  | > 10 µM |  | > 10 µM |  | > 10 µM |  | > 10 µM |
| CC(C)C[C@H](NC(=O)[C@@H](O)[C@H](N)Cc1ccccc1)C(=O)O |  | > 100 µM |  | > 100 µM |  | > 100 µM |  | > 100 µM |  | > 100 µM |  | > 100 µM |  | > 100 µM |  | > 100 µM |  | > 100 µM |  | > 100 µM |
| CN1CCN(C(=S)SCN2C(=O)c3ccccc3S2(=O)=O)CC1 | 30.9 µM | 85.3 µM | 0.492 µM | 20.3 µM | 4.24 µM | 18 µM | 23.1 µM | 95.8 µM | 35.3 µM | > 100 µM | 5.08 µM | 25.7 µM | 23.2 µM | 72.3 µM | 2.22 µM | 6.87 µM | 36.8 µM | > 100 µM | 4.04 µM | 13.4 µM |
| Nc1ccc2c(c1)CN1C(=O)c3ccccc3C1=N2 |  | > 125 µM | 15.5 µM | > 125 µM | 19.2 µM | > 125 µM |  | > 125 µM |  | 123 µM | 19.2 µM | 96.5 µM and 58.2 µM |  | > 125 µM | 34.1 µM | > 125 µM | 5.29 µM | 95.8 µM | 26.4 µM | > 125 µM |
| CC1(C)CC2(C)OC2C2(C1)N=NC(=Nc1ccccc1)O2 (centres undefined) | 13.2 µM | 26.6 µM | 5.26 µM | 26.1 µM | 2.95 µM | 10.9 µM | 3.07 µM | 12.1 µM | 2.61 µM | 7.75 µM | 2.63 µM | 9.96 µM | 3.45 µM | 17.2 µM | 2.41 µM | 6.82 µM | 7.94 µM | 20.9 µM | 2.56 µM | 8.68 µM |
| CC(=O)N[C@@H]1CCC[C@H](C(=O)Nc2cc(-c3cnn4c3CC(C)(C)C4)c(Cl)cn2)C1 | < 0.0149 µM | 0.237 µM | < 0.01 µM | < 0.017 µM | < 0.0108 µM | > 100 µM | 0.0216 µM | 0.075 µM | < 0.0133 µM | > 100 µM | < 0.0117 µM | 0.13 µM | 0.0235 µM | 25.4 µM | 0.0158 µM | 0.0703 µM | < 0.01 µM | 0.0187 µM | < 0.01 µM | 1.21 µM |
| CN(C)c1ccc(Sc2ccc3nc(N)nc(N)c3c2)cc1 | 0.848 µM | 4.84 µM | 0.444 µM | 2.2 µM | 0.453 µM | 12 µM | 1.09 µM | 2.87 µM | 2.23 µM | 14.1 µM | 0.635 µM | 16 µM | 1.76 µM | 17.1 µM | 2.92 µM | 10.9 µM | 0.985 µM | 10.3 µM | 0.629 µM | 6.71 µM |
| CCc1nc(N)nc(N)c1-c1ccc([N+](=O)[O-])c(Cl)c1 |  | > 100 µM |  | > 100 µM |  | > 100 µM |  | > 100 µM |  | > 100 µM |  | > 100 µM |  | > 100 µM |  | > 100 µM |  | > 94.4 µM |  | > 100 µM |
| CCC1(N2C(=O)c3c(F)c(F)c(F)c(F)c3C2=O)C(=O)NC(=O)N(c2ccccc2)C1=O (centres undefined) |  |  | 2.67 µM | 4.57 µM | 2.23 µM | 4.89 µM |  |  | 1.7 µM | 4.03 µM | 2.64 µM | 6.35 µM | 1.74 µM | 4.08 µM | 0.331 µM | 2.58 µM | 2.24 µM | 4.33 µM | 0.496 µM | 4.32 µM |
| O=C(CC(C(=O)O)N1CCOCC1)c1ccccc1 (centres undefined) |  |  |  | 43.6 µM |  | 32.1 µM |  | 34 µM |  | 32.4 µM |  | 35.5 µM |  | 43.2 µM |  | 42.1 µM |  | 45.7 µM |  | 35.5 µM |
| COc1cc(OC)cc(N2CCN(C(=O)Nc3nc4cc(F)ccc4nc3OC)CC2)c1 | 0.0445 µM and 0.0377 µM and 0.0381 µM | 31.4 µM and 27.1 µM | 0.0226 µM and 0.0299 µM and 0.0261 µM |  | 0.0343 µM and 0.0372 µM and 0.0306 µM |  | 5.45 µM and 12.5 µM | 46.8 µM and 44.8 µM | 0.0524 µM and 0.0976 µM and 0.0361 µM |  | 0.049 µM and 0.0457 µM and 0.044 µM | 31.1 µM and 30.7 µM |  | 84.8 µM and > 100 µM | < 0.0182 µM and 0.0386 µM and 0.0416 µM | 13.8 µM and 20 µM | 0.0195 µM and 0.0228 µM and 0.0136 µM |  | < 0.018 µM and 0.0415 µM and 0.0268 µM | 20.2 µM and 24.8 µM |
| CCCCCCCCCCCCNC(=O)[C@H]1CSC(c2ccc(OC)c(F)c2)N1 (some centres undefined) | 1.75 µM | 3.33 µM | 1.63 µM | 3.59 µM | 0.837 µM | 2.42 µM | 1.78 µM | 3.24 µM | 0.225 µM | 0.55 µM | 0.214 µM | 0.469 µM | 0.699 µM | 1.99 µM | 2.06 µM | 4.62 µM | 0.785 µM | 2.14 µM | 0.324 µM | 1.59 µM |
| C=C(CC1(CC(=C)c2ccc(C(=O)O)cc2)C(=O)N(C)C(=O)N(C)C1=O)c1ccc(C(=O)O)cc1 | 61.2 µM | > 100 µM | 34.4 µM | > 100 µM | 48.7 µM | > 100 µM |  |  | > 100 µM | > 100 µM | 38.3 µM | > 100 µM | 23.2 µM | > 100 µM | 21.8 µM | > 100 µM | > 100 µM | > 100 µM | 23.9 µM | > 100 µM |
